Reference: ChEMBL document CHEMBL4392832, “Surveying heterocycles as amide bioisosteres within a series of mGlu7 NAMs: Discovery of VU6019278” (Bioorg Med Chem Lett, 2019)

Columns and labels:
[1] = biological target: Metabotropic glutamate receptor 7 (Rattus norvegicus, UniProt P35400); assay: (§1) Negative allosteric modulation of rat mGlu7 receptor expressed in HEK cells co-expressing Galpha15 assessed as reduction in calcium mobilization incubated for 142 secs prior to glutamate addition for 120 secs followed by L-AP4 addition and measured after 40 secs by Fluo-4 AM dye based fluorescence assay; type: functional, cell-based
Metabotropic glutamate receptor 7, sequence (P35400 whole entry): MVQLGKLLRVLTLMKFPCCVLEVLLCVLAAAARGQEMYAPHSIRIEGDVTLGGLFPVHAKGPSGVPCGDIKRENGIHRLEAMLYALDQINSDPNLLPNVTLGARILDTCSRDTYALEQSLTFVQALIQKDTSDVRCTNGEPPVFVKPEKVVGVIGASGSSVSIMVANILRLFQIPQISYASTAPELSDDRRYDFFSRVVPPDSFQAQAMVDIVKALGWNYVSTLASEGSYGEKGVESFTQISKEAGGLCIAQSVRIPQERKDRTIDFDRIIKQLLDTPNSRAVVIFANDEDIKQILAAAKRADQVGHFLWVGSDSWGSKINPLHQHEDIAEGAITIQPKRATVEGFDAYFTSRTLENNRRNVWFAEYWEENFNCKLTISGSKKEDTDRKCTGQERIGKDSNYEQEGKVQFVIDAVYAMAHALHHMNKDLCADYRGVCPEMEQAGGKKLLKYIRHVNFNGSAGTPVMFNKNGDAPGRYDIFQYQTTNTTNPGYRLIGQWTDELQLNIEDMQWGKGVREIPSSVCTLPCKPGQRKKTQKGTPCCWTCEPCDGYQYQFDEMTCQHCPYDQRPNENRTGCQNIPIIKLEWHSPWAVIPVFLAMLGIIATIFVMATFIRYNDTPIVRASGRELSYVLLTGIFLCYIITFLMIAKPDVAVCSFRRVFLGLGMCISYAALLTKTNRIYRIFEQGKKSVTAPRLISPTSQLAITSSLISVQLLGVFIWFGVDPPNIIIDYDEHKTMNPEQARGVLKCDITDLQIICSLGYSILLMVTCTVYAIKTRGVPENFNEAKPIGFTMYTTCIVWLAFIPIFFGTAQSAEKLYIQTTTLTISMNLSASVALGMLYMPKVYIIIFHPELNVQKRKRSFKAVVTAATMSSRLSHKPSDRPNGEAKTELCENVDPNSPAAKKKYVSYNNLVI

[2] = biological target: Metabotropic glutamate receptor 7 (Rattus norvegicus) (UniProt P35400); assay: as §1, with “assessed as minimum L-AP4 response by measuring reduction in” for “assessed as reduction in”, “fluorescence assay relative to L-AP4 alone” for “fluorescence assay”; type: functional, cell-based; design: scale not given: the % may be the effect or the level left
Metabotropic glutamate receptor 7 (Rattus norvegicus), sequence (P35400 whole entry): as above

[3] = Unbound brain to plasma concentration ratio in rat; type: ADME, cell-free; conditions: read-out: K(p,uu,brain)
[4] = biological target: Metabotropic glutamate receptor 4 (Homo sapiens, UniProt Q14833); assay: Negative allosteric modulation of mGlu4 receptor (unknown origin)
Metabotropic glutamate receptor 4, sequence (Q14833 whole entry): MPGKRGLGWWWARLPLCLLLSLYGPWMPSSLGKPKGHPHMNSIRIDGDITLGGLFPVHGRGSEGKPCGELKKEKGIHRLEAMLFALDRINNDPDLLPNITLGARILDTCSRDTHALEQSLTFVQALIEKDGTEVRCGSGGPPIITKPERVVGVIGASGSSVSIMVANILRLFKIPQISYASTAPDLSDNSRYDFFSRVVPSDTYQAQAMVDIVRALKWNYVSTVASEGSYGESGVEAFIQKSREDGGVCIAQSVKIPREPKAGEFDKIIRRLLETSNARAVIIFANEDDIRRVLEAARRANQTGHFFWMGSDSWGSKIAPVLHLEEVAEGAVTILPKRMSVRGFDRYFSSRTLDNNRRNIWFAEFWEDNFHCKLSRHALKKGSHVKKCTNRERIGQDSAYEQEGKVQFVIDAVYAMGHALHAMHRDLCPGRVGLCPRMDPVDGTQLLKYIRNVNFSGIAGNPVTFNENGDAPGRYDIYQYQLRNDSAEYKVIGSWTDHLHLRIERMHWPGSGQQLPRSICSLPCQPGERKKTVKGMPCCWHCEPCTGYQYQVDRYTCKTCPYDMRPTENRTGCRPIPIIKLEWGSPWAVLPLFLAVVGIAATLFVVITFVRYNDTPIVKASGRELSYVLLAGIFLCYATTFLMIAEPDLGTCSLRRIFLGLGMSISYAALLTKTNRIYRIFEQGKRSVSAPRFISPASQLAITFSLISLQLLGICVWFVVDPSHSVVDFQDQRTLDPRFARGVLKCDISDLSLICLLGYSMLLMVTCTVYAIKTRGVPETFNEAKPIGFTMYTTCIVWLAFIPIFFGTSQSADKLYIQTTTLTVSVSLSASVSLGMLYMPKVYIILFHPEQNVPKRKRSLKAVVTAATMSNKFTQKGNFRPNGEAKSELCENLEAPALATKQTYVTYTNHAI

[5] = biological target: Metabotropic glutamate receptor 2 (Homo sapiens, UniProt Q14416); assay: Negative allosteric modulation of mGlu2 receptor (unknown origin)
[6] = biological target: Metabotropic glutamate receptor 8 (Homo sapiens, UniProt O00222); assay: Negative allosteric modulation of mGlu8 receptor (unknown origin)
Metabotropic glutamate receptor 8, sequence (O00222 whole entry): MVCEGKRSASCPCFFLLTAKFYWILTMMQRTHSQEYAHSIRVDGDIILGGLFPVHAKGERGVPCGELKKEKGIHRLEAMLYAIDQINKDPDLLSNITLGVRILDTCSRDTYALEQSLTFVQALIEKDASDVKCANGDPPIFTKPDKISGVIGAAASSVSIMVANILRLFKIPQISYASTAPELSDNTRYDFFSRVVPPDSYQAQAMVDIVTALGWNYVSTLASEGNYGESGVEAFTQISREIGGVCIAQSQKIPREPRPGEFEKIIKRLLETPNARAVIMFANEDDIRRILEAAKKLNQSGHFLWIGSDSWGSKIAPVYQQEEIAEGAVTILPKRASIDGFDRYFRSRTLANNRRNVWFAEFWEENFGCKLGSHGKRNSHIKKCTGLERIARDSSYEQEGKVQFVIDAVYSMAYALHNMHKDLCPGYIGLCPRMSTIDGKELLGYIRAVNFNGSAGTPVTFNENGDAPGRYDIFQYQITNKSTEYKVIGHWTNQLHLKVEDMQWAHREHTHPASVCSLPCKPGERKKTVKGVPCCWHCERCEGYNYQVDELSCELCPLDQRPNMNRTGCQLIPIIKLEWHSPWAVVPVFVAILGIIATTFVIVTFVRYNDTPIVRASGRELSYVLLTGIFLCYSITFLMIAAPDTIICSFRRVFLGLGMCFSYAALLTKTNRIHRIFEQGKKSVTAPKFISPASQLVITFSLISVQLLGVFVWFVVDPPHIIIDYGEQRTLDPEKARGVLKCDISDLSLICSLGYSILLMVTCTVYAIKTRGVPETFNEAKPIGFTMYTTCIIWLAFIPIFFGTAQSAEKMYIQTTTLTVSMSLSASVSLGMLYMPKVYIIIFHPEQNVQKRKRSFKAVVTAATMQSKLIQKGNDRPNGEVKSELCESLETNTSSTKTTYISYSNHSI

[7] = Protein binding in rat brain assessed as unbound fraction at 5 uM measured after 6 hrs by LC-MS/MS analysis; type: ADME, tissue-based
[8] = Total drug level in Sprague-Dawley rat brain at 0.2 mg/kg, iv via cassette dosing measured after 0.25 hrs by LC-MS/MS analysis; type: ADME, organism-based; conditions: read-out: Drug uptake
[9] = biological target: Metabotropic glutamate receptor 3 (Homo sapiens, UniProt Q14832); assay: Negative allosteric modulation of mGlu3 receptor (unknown origin)
[10] = Protein binding in rat plasma assessed as unbound fraction at 5 uM measured after 4 hrs by LC-MS/MS analysis; type: ADME, cell-free
[11] = Brain to plasma permeability coefficient, Kp of compound in rat; type: ADME, cell-free
[12] = biological target: Metabotropic glutamate receptor 1 (Homo sapiens, UniProt Q13255); assay: Negative allosteric modulation of mGlu1 receptor (unknown origin)
[13] = biological target: Metabotropic glutamate receptor 6 (Homo sapiens, UniProt O15303); assay: Negative allosteric modulation of mGlu6 receptor (unknown origin)
Metabotropic glutamate receptor 6, sequence (O15303 whole entry): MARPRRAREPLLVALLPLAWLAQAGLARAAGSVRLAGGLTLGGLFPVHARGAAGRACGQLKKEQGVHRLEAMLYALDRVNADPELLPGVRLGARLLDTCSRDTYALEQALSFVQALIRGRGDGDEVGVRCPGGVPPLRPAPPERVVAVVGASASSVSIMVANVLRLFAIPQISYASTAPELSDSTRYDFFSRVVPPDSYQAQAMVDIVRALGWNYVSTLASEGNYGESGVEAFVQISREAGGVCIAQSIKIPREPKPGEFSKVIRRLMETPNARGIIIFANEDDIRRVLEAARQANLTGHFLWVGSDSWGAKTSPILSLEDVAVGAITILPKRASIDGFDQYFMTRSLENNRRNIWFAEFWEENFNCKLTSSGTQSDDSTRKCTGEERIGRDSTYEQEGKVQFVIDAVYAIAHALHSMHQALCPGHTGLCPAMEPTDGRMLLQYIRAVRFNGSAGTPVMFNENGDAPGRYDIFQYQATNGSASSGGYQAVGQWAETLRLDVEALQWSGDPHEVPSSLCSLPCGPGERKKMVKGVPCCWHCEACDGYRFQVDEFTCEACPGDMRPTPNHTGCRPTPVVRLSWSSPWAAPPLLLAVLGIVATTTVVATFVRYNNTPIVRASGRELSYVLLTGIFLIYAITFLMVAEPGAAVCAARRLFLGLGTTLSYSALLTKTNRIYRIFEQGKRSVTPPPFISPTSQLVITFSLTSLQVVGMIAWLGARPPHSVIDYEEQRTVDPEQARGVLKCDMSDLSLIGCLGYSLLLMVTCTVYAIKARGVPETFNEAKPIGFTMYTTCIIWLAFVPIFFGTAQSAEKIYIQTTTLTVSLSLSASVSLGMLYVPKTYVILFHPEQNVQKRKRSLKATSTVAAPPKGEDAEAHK

[14] = Free drug level in Sprague-Dawley rat brain at 0.2 mg/kg, iv via cassette dosing measured after 0.25 hrs by LC-MS/MS analysis; type: ADME, organism-based; conditions: in vivo
[15] = biological target: Metabotropic glutamate receptor 5 (Homo sapiens, UniProt P41594); assay: Negative allosteric modulation of mGlu5 receptor (unknown origin)
Metabotropic glutamate receptor 5, sequence (P41594 whole entry): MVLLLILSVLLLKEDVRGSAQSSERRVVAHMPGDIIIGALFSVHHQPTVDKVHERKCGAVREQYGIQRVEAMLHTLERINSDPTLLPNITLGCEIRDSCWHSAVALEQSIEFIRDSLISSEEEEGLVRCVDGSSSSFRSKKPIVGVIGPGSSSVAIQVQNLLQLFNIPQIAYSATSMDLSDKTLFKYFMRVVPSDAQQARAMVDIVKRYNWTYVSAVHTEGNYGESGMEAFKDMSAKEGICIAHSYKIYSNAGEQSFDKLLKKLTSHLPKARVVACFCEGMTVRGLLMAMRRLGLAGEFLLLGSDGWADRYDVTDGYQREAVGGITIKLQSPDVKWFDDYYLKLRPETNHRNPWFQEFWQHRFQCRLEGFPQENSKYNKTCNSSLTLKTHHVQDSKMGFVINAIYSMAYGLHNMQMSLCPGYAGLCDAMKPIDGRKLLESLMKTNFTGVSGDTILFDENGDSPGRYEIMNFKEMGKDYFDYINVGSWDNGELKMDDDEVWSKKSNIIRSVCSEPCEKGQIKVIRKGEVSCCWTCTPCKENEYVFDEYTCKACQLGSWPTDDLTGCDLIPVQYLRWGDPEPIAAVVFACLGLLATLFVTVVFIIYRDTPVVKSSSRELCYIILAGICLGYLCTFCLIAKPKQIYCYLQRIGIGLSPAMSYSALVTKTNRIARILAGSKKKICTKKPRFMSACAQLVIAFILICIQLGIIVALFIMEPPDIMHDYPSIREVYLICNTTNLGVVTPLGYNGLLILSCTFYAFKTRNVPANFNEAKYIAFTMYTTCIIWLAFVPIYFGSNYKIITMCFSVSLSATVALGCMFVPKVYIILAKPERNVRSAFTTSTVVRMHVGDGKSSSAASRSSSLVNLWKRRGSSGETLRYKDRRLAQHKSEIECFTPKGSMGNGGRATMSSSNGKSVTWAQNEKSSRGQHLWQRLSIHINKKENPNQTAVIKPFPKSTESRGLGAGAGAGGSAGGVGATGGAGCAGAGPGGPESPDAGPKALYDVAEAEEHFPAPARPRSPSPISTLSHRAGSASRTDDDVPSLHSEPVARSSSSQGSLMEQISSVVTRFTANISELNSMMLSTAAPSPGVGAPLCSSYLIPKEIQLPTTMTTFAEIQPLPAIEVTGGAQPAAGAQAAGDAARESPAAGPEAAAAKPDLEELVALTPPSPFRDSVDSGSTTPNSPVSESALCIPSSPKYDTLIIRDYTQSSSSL

Row | SMILES | IC50 ([1]; read-out: IC50) [µM] | Activity [2] [%] | also measured
1 | COc1ccc(-c2nnc(-c3cc(OC(F)(F)F)ccc3-n3cncn3)o2)c(F)c1F | > 30 |  | 
2 | COc1ccc(-c2nnc(-c3cc(OC(F)(F)F)ccc3-c3cn[nH]c3)o2)cc1OC | 2.24 | 10.3 | 
3 | COc1ccc(-c2nnc(-c3cc(OC(F)(F)F)ccc3-c3cscn3)o2)cc1OC | 3.53 | 49.2 | 
4 | COc1ccc(-c2nnc(-c3cc(OC(F)(F)F)ccc3-n3cncn3)o2)cn1 | > 30 |  | 
5 | COc1cc(-c2nnc(-c3cc(OC(F)(F)F)ccc3-n3cncn3)o2)ccn1 | ≥ 10 | 68.9 | 
6 | COc1ccc(-c2noc(-c3cc(OC(F)(F)F)ccc3-n3cncn3)n2)cc1OC | 1.32 | 14.5 | 
7 | COc1ccc(-c2nnc(-c3cc(OC(F)(F)F)ccc3N3CCOCC3)o2)cc1OC | 1.18 | 23.1 | 
8 | COc1ccc(-c2nc(-c3cc(OC(F)(F)F)ccc3-n3cncn3)no2)cc1OC | 2.39 | 8.4 | 
9 | COc1ccc(-c2nnc(-c3cc(OC(F)(F)F)ccc3-n3ccnc3)o2)cc1OC | 0.57 | 6.3 | Kp uu [3]: 0.65; IC50 [4]: > 10 µM; IC50 [5]: > 10 µM; IC50 [6]: > 10 µM; fraction unbound at 6 h, 5 µM [7]: 0.013; concentration at 0.25 h [8]: 456 nM; IC50 [9]: > 10 µM; Fu ([10]; 4 h, 5 µM): 0.1; Kp [11]: 4.9; IC50 [12]: > 10 µM; IC50 [13]: > 10 µM; Drug uptake(free) [14]: 6 nM; IC50 [15]: > 10 µM
10 | COc1ccc(-c2nnnn2-c2cc(OC(F)(F)F)ccc2-n2cncn2)cc1OC |  |  | IC50 [1]: Not Active
11 | COc1ccc(-c2nnc(-c3cc(OC(F)(F)F)ccc3N3CCN(C)CC3)o2)cc1OC | > 30 |  | 
12 | COc1ccc(-c2nnc(-c3cc(OC(F)(F)F)ccc3-c3ccnnc3)o2)cc1OC | ≥ 10 | 27.6 | 
13 | FC(F)(F)Oc1ccc(-n2cncn2)c(-c2nnc(-c3ccc4c(c3)OCCO4)o2)c1 | > 30 |  | 
14 | COc1cc(-c2nnc(-c3cc(OC(F)(F)F)ccc3-n3cncn3)o2)cc(F)c1OC | > 30 |  | 
15 | COc1ccc(-c2nnc(-c3cc(OC(F)(F)F)ccc3-c3ccncc3)o2)cc1OC | ≥ 10 | 27.9 | 
16 | COc1ccc(-c2nnc(-c3cc(OC(F)(F)F)ccc3-n3cncn3)o2)cc1OC | 1.58 | 7.1 | 
17 | COc1ccc(-c2c[nH]c(-c3cc(OC(F)(F)F)ccc3-n3cncn3)n2)cc1OC | ≥ 10 | 34.2 | 
18 | COc1cc(F)c(-c2nnc(-c3cc(OC(F)(F)F)ccc3-n3cncn3)o2)cc1OC | ≥ 10 | 72.8 | 
19 | COc1cc(-c2nnc(-c3cc(OC(F)(F)F)ccc3-n3cncn3)o2)ccc1F | > 30 |  | 

Row | SMILES | IC50 ([1]; read-out: IC50) [µM] | Activity [2] [%] | also measured
20 | COc1ccc(-c2nnc(-c3cc(OC(F)(F)F)ccc3-c3cccnc3)o2)cc1OC | > 30 |  | 
21 | COc1cc(-c2nnc(-c3cc(OC(F)(F)F)ccc3-n3cncn3)o2)ccc1OC1CCC1 | 1.55 | 10.4 | 
22 | COc1ccc(-c2ccn3c(-c4cc(OC(F)(F)F)ccc4-n4cncn4)nnc3c2)cc1OC |  |  | IC50 [1]: Not Active
23 | FC(F)(F)Oc1ccc(-n2cncn2)c(-c2nnc(-c3ccc4c(c3)OC(F)(F)O4)o2)c1 | > 30 |  | 
24 | COc1ccc(-c2coc(-c3cc(OC(F)(F)F)ccc3-n3cncn3)n2)cc1OC | 7.63 | 21.1 | 
25 | COc1ccc(-c2cn(-c3cc(OC(F)(F)F)ccc3-n3cncn3)nn2)cc1OC | ≥ 10 | 32.4 | 
26 | COc1ccc(-c2nsc(-c3cc(OC(F)(F)F)ccc3-n3cncn3)n2)cc1OC | ≥ 10 | 41.5 | 
27 | COc1ccc(-c2ccc3nnc(-c4cc(OC(F)(F)F)ccc4-n4cncn4)n3n2)cc1OC |  |  | IC50 [1]: Not Active
28 | COc1ccc(-c2nn3cc(-c4cc(OC(F)(F)F)ccc4-n4cncn4)nc3s2)cc1OC |  |  | IC50 [1]: Not Active
29 | COc1ccc(-c2nnc3sc(-c4cc(OC(F)(F)F)ccc4-n4cncn4)nn23)cc1OC |  |  | IC50 [1]: Not Active
30 | COc1ccc(-c2nnc(-c3cc(OC(F)(F)F)ccc3-n3cncn3)o2)cc1F | > 30 |  | 
31 | COc1ccc(-c2cnc(-c3cc(OC(F)(F)F)ccc3-n3cncn3)o2)cc1OC | 2.08 | 36.5 | 
32 | FC(F)(F)Oc1ccc(-n2cncn2)c(-c2nnc(-c3ccc4c(c3)OCO4)o2)c1 | > 30 |  | 
33 | COc1ccc(-c2nnc(-c3cc(OC(F)(F)F)ccc3-c3cnn(C)c3)o2)cc1OC | > 30 |  | 
34 | COc1cc(-c2nnc(-c3cc(OC(F)(F)F)ccc3-n3cncn3)o2)ccc1OCC1CC1 | 1.31 | 13.2 | Kp uu [3]: 0.43; fraction unbound at 4 h, 5 µM [10]: 0.038; Kp [11]: 2
35 | COc1cc(-c2nnc(-c3cc(OC(F)(F)F)ccc3-n3cncn3)o2)cnc1OC | 4.38 | 13.5 | 
36 | COc1ccc(-c2nnc(-c3cc(OC(F)(F)F)ccc3-c3ccnn3C)o2)cc1OC |  | 20.6 | 
37 | COc1ccc(-c2nnc(-c3cc(OC(F)(F)F)ccc3N3CCCC3)o2)cc1OC | > 30 |  | 
38 | COc1ccc(-c2nnc(-c3cc(OC(F)(F)F)ccc3N3CCCCC3)o2)cc1OC | 5.86 | 65.4 | 
